Laboratory results from patent publication EP1067939B1, “USE OF STEROIDAL ALKALOID DERIVATIVES AS INHIBITORS OF HEDGEHOG PROTEIN SIGNALING PATHWAYS” (The Johns Hopkins University, priority 1998, dated 1999).
Several values for one entry are separate records, joined by “and”; a condition that tells them apart may be missing. Identical values can stand only once. Like-named read-outs stand apart in the source and are kept apart here.

What was measured:
His6Hh-C = target: T1, His6Hh-C (Drosophila melanogaster, UniProt Q02936); test: In vitro Hh autoprocessing reaction with purified components; format: biochemical; settings: for interference with cholesterol-stimulated autoprocessing: 12 µM cholesterol, 3 hours at 30° C, up to 27-fold excess to cholesterol; for His6Hh-C autocleavage reaction in the presence of compound without sterol: absence of cholesterol, up to 324 µM
T1 construct: made in house
T1 sequence (Q02936 252-471): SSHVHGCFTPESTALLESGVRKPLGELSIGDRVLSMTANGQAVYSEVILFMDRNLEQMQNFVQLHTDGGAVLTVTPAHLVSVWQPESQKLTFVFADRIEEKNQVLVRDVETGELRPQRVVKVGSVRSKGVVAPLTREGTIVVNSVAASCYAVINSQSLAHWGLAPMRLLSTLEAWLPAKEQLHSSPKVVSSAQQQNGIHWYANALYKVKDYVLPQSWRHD

[1] = test system: primary human lymphoblasts; test: Cholesterol Biosynthesis Assay (sterol profiles of cultured cells); format: cell-based; settings: for Percent Sterols: Cholesterol / Percent Sterols: c. Cholesta-7,24-dien-3ß-ol / Percent Sterols: e. Cholesta-8(14)-en-3ß-ol / Percent Sterols: f. 7 Dehydrocholesterol / Percent Sterols: h. C27 Sterol 1 (mw 384) / Percent Sterols: j. C27 Oxysterol 1 (mw 400) / Percent Sterols: k. C27 Oxysterol 2 (mw 400) / Total Sterols (µg/mg protein) / Percent Sterols: i. C27 Sterol 2 (mw 382) / Percent Sterols: 2. C28 Sterols / Percent Sterols: 3. C29 Sterols / Percent Sterols: d. Zymosterol: five days
Shh = target: T2, Shh (Mus musculus, UniProt Q62226); test: Shh autoprocessing in stably transfected HK293 cells (immunoblot); format: cell-based
T2 construct: expressed in transfected cells; host or cells: HK293 cells, Ecdysone-Inducible Mammalian Expression System (Invitrogen)
T2 sequence (Q62226 25-437): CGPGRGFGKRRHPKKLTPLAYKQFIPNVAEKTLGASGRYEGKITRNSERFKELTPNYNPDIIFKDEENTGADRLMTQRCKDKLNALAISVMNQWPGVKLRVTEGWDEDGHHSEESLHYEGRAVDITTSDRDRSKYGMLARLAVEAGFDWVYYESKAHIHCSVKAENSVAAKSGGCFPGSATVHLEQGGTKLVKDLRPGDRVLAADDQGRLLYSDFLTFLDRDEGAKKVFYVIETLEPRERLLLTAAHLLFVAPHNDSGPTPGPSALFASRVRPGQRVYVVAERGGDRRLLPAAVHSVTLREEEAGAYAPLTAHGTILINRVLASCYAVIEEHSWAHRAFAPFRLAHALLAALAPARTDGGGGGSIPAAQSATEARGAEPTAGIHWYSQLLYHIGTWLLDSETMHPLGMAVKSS
Description: To examine potential effects of these compounds on Shh processing we utilized HK293 cells cultured in lipid-depleted serum and carrying a stable integrated construct for expression of Shh under ecdysone-inducible control (47). Shh protein expression in these cells can be induced by addition of muristerone A, an ecdysone analog.
• 1. M. Hammerschmidt, A. Brook, A. P. McMahon, Trends Genet, 13, 14-21 (1997). • 2. C. Chiang, et al., Nature, 383,407-413 (1996). • 3. Y. Tanabe, T. M. Jessell, Science 274, 1115-1123 (1996). • 4. T. P. Yamaguchi, Curr. Opin. Genet. Dev. 7, 513-518 (1997). • 5. N. Shubin, C. Tabin, S. Carroll, Nature 388, 639-648 (1997). • 6. A. E. Oro, et al., Science 276, 817-821 (1997). • 7. M. M. Cohen, K. K. Sulik, J. Craniofac. Genet. Deve. Biol. 12, 196-244 (1992). • 8. E. Belloni, et al., Nature Genet. 14, 353-356 (1996). • 9. E. Roessler, et al., Nature Genet. 14, 357-360 (1996). • 10. J. A. Porter, et al., Nature 374, 363-366 (1995). • 11. J. A. Porter, K. E. Young, P. A. Beacy, Science 274, 255-259 (1996b). • 12. J. J. Lee, et al., Science 266, 1528-1537 (1994). • 13. J. A. Porter, et al., Cell 86, 21-34 (1996a). • 14. C. Roux, Arch. Franc. Pediatr. 21, 451-464 (1964). • 15. C. Roux, C. R. Soc. Biol. 160, 1353-1357 (1966). • 16. D. B. Dehart, L. Lanoue, G. S. Tinit, K. K. Sulik, Am J. Med. Genet. 68, 328-337 (1997). • 17. M. Kraml, J. F. Bagli, D. Dvornik, Biochem. and Biophysical Res. Com. 15, 455-457 (1964). • 18. J. Avigan, D. Steinberg, H. E. Vroman, M. J. Thompson, E. Mosettig, J. Biol. Chem 235, 3123-3126 (1960). • 19. R. B. Clayton, A. N. Nelson, I. D. Frantz Jr., J. Lipid Res. 4, 166-178 (1963). • 20. J. Aufenanger, J. Pill, K. Stegmeier, F. H. Schmidt, Horm. Metabol. Res. 17, 612-613 (1986). • 21. […] G. Popjak, A. Meenean, E. J. Parish, W. D. Nes, J. Biol. Chem 264,6230-6238 (1989). • 23. H. Yoshikawa, Brain Deve. 13, 115-120 (1991). • 24. R. I. Kelley, et al., Am. J. Of Med. Gen. 66, 478-484 (1996). • 25. G. S. Tint, et al., New England Journal of Medicine 330, 107-113 (1994). • 26. T.E. Willnow, et al., Proc. Natl. Acad. Sci USA 93, 8460-8464 (1996). • 27. S. Stefansson, D. A. Chappell, K. M. Argraves, D. K. Strickland, W. S. Argraves, J. Biol. Chem. 270, 19417-19421 (1995). • 28. W. Binns, L. F. James, J. L. Shupe, G. Everett, Am. J. Vet. Res. 24, 1164-1174 (1963). • 29. R. F. Keeler, W. Binns, Teratology 1, 5-10 (1968). • 30. P. A. Beachy, et al., CSH Symp. Quant. Biol. 62, in press (1997). • 31. E. D. Carstea, et al., Science 277, 228-231 (1997). • 32. S. K. Loftus, et al., Science 277, 232-235 […]. • 33. L. V. Goodrich, L. Milenkovic, K. M. Higgins, M. P. Scott, Science 277, 1109-1113 (1997). • 34. H. Kumagai, K. T. Chun, R. D. Simoni, J. Biol. Chem. 270, 19107-19113 (1995). • 35. G. Gil, J. R. Faust, D. J. Chin, J. L. Goldstien, M. S. Brown, Cell 41, 249-258 (1985). • 36. X. Hua, A. Nohturfft, J. L. Goldstein, M. S. Brown, Cell 87, 415-426 (1996). • 37. M. S. Brown, J. L. Goldstein, Cell 89, 331-340 (1997). • 38. M. M. Bryden, C. Perry, R. F. Keeler, Teratology 8, 18-28 (1973). • 39. M. L. Omnell, F. R. P. Sim, R. F. Keeler, L. C. Harne, K. W. Brown, Teratology 42, 105-119 (1990). • 40. Fertile chick eggs (white leghorn) were placed in a humidified incubator at 37.5° C in a rotating tray for 14 hours. […] The window was taped and the eggs incubated for an additional 4 days. The embryos were dissected in phosphate buffered saline (PBS, pH 7.2).

## C[C@H]1CC[C@]2(NC1)O[C@H]1C[C@H]3[C@@H]4CC[C@H]5C[C@@H](O)CC[C@]5(C)[C@H]4CC[C@]3(C)[C@H]1[C@@H]2C [Tomatidine, tomatidine]
His6Hh-C
  interference with cholesterol-stimulated autoprocessing: does not interfere with autoprocessing
  His6Hh-C autocleavage reaction in the presence of compound without sterol: does not proceed
[1]
  Percent Sterols: b. 7 Dehydrodesmosterol: 0.8% and 0.5%
  Percent Sterols: g. Lathosterol: 4.9% and 4.7% and 3.6%
[1]; 1.25 µM
  Percent Sterols: Cholesterol: 54%
  Percent Sterols: c. Cholesta-7,24-dien-3ß-ol: 0.9%
  Percent Sterols: e. Cholesta-8(14)-en-3ß-ol: 6.7%
  Percent Sterols: f. 7 Dehydrocholesterol: 19%
  Percent Sterols: h. C27 Sterol 1 (mw 384): 7.0%
  Percent Sterols: j. C27 Oxysterol 1 (mw 400): 1.0%
  Percent Sterols: k. C27 Oxysterol 2 (mw 400): 2.0%
  Total Sterols (µg/mg protein): 7.8 µg/mg protein
[1]; 2.5 µM
  Percent Sterols: Cholesterol: 42%
  Percent Sterols: c. Cholesta-7,24-dien-3ß-ol: 0.9%
  Percent Sterols: e. Cholesta-8(14)-en-3ß-ol: 8.9%
  Percent Sterols: f. 7 Dehydrocholesterol: 14%
  Percent Sterols: h. C27 Sterol 1 (mw 384): 13%
  Percent Sterols: i. C27 Sterol 2 (mw 382): 4.1%
  Percent Sterols: j. C27 Oxysterol 1 (mw 400): 2.4%
  Percent Sterols: k. C27 Oxysterol 2 (mw 400): 5.0%
  Total Sterols (µg/mg protein): 7.8 µg/mg protein
[1]; 5.0 µM
  Percent Sterols: 2. C28 Sterols: 1.6%
  Percent Sterols: 3. C29 Sterols: 3.1%
  Percent Sterols: Cholesterol: 32%
  Percent Sterols: c. Cholesta-7,24-dien-3ß-ol: 0.7%
  Percent Sterols: e. Cholesta-8(14)-en-3ß-ol: 8.7%
  Percent Sterols: f. 7 Dehydrocholesterol: 9.8%
  Percent Sterols: h. C27 Sterol 1 (mw 384): 20%
  Percent Sterols: i. C27 Sterol 2 (mw 382): 4.7%
  Percent Sterols: j. C27 Oxysterol 1 (mw 400): 4.5%
  Percent Sterols: k. C27 Oxysterol 2 (mw 400): 11%
  Total Sterols (µg/mg protein): 5.6 µg/mg protein
Shh; added during the 24-hour induction period, doses up to 5-fold higher than those required to completely inhibit Shh signaling
  Shh-Np production and accumulation of unprocessed precursor: did not diminish Shh-Np production nor induce accumulation of unprocessed precursor
Shh; species ∼ 1.9 kD larger, lanes 10, 11
  slower migrating Shh species, signal sequence cleavage: minor inhibition of signal sequence cleavage

## CC1=C2C[C@H]3[C@@H](CC=C4C[C@@H](O)CC[C@@]43C)[C@@H]2CC[C@]12O[C@@H]1C[C@H](C)CN[C@H]1[C@H]2C [Cyclopamine, cyclopamine]
His6Hh-C
  interference with cholesterol-stimulated autoprocessing: does not interfere with autoprocessing
  His6Hh-C autocleavage reaction in the presence of compound without sterol: does not proceed
[1]
  Percent Sterols: b. 7 Dehydrodesmosterol: 0.8%
[1]; 1.25 µM
  Percent Sterols: 2. C28 Sterols: 1.2%
  Percent Sterols: 3. C29 Sterols: 0.7%
  Percent Sterols: Cholesterol: 87%
  Percent Sterols: c. Cholesta-7,24-dien-3ß-ol: 0.6%
  Percent Sterols: d. Zymosterol: 2.3%
  Percent Sterols: e. Cholesta-8(14)-en-3ß-ol: 0.9%
  Percent Sterols: f. 7 Dehydrocholesterol: 2.4%
  Total Sterols (µg/mg protein): 8.4 µg/mg protein
[1]; 2.5 µM
  Percent Sterols: 2. C28 Sterols: 1.3%
  Percent Sterols: 3. C29 Sterols: 1.2%
  Percent Sterols: Cholesterol: 76%
  Percent Sterols: c. Cholesta-7,24-dien-3ß-ol: 0.9%
  Percent Sterols: d. Zymosterol: 4.5%
  Percent Sterols: e. Cholesta-8(14)-en-3ß-ol: 2.5%
  Percent Sterols: f. 7 Dehydrocholesterol: 4.2%
  Total Sterols (µg/mg protein): 8.5 µg/mg protein
[1]; 5.0 µM
  Percent Sterols: 2. C28 Sterols: 1.8%
  Percent Sterols: 3. C29 Sterols: 3.1%
  Percent Sterols: Cholesterol: 68%
  Percent Sterols: c. Cholesta-7,24-dien-3ß-ol: 1.6%
  Percent Sterols: d. Zymosterol: 4.7%
  Percent Sterols: e. Cholesta-8(14)-en-3ß-ol: 2.7%
  Percent Sterols: f. 7 Dehydrocholesterol: 6.3%
  Total Sterols (µg/mg protein): 8.3 µg/mg protein
Shh
  Shh-Np production and accumulation of unprocessed precursor: did not diminish Shh-Np production nor induce accumulation of unprocessed precursor
